In patent US11155580B2, “Modified proteins and methods of use thereof” (YALE UNIVERSITY, priority 2013, dated 2021):
“Also recorded” adds a separate entry of the source. Where a SMILES comes first, the peptide text is derived from it. Where no end group is shown, it is not given here. The star is where a group is joined. X1 = CCN(CC)c1ccc2c(-c3ccc(S(=O)(=O)*)cc3S(=O)(=O)[O-])c3ccc(=[N+](CC)CC)cc-3oc2c1; rhodamine = not defined here

Legend:
cathepsin D = cathepsin D (Homo sapiens, UniProt P07339); experiment: Resistance to acid proteases: cathepsin D; type: in vitro ADME; conditions: 50 pmol, 30 min, 37° C., pH 5
Sequence of cathepsin D (P07339 65-412, species assumed): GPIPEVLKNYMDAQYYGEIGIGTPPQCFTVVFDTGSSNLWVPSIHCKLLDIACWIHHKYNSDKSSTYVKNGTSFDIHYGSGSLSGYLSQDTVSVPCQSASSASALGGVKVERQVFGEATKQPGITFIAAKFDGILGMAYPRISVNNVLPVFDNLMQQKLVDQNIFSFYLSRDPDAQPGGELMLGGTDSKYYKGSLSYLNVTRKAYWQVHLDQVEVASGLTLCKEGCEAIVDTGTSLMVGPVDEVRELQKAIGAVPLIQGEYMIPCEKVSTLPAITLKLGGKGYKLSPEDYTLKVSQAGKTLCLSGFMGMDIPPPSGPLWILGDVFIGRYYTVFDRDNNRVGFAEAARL
Experimental: (§1) 50 pmol aPPR, 5.2R, 5.3R, ZF5.3R, TatR (SEQ ID NO:67), or Arg8R (SEQ ID NO:68) were incubated with 5 pg cathepsin B, D, or L for 30 min at 37° C. in 10 μL of 20 mM sodium phosphate buffer (pH 5) containing 150 mM NaCl. At the end of the incubation, the reaction was stopped by adding 40 μL of a solution containing a 84:15:1 ratio of water:EtOH:TFA before analysis by HPLC.

cathepsin L = cathepsin L (Homo sapiens, UniProt P07711); experiment: Resistance to acid proteases: cathepsin L; type: in vitro ADME; conditions: 50 pmol, 30 min, 37° C., pH 5
Sequence of cathepsin L (P07711 114-333, species assumed): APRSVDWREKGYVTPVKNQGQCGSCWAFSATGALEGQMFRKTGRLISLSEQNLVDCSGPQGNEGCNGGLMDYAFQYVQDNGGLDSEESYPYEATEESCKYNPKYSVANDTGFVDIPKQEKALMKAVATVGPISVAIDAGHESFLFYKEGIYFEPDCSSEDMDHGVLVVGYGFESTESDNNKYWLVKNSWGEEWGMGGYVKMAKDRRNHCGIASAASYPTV
Experimental: as §1

HeLa cells [1] = experiment: Effects of endocytosis inhibitors on cell uptake, confocal microscopy; type: cell-based; conditions: 1 μM rhodamine labeled, 30 min, 37° C.; for effect of EIPA on uptake: 50 μM EIPA; for effect of dynasore on uptake: 80 μM dynasore; for effect of MβCD on uptake: 5 mM MβCD
Experimental: HeLa cells grown for 24 h in glass bottom plates were incubated with HKR buffer, or HKR buffer containing 80 μM dynasore, 50 μM N-ethyl-isopropyl-amiloride, or 5 mM methyl-β-cyclodextrin for 30 min at 37° C. prior to the addition of 1 μM rhodamine-labeled miniature protein or peptide (Tat (SEQ ID NO:67) and Arg8 (SEQ ID NO:68)). The cells were washed twice with DMEM, the nuclei labeled with Hoescht, and images acquired as described above for colocalization experiments.

HeLa cells [2] = experiment: HPLC analysis of cytosolic extracts prepared with streptolysin O; type: cell-based; conditions: HeLa cells treated with rhodamine labeled molecule
Experimental: To generate cytosolic extracts, HeLa cells were treated with streptolysin O (SLO), a well characterized bacterial toxin that creates pores in the plasma membranes of target cells (Walev et al., 2002, FASEB 16:237-239). […] Moreover, when the toxin is added to cultured cells at 4° C. and washed with PBS before raising the temperature to 37° C., pores are created only in the plasma membrane and the release of ER, golgi, or endolysosomal contents are avoided (Androlewicz et al., 1993, Proc Natl Acad Sci USA 90:9130-9134).
First, selective release of the cytoplasmic contents of HeLa cells using the published procedures was verified. HeLa cells were treated with 20 μg/mL SLO in PBS containing 5 mM DTT (20 min, 4° C.), washed (three PBS washes, 150 μL each), resuspended in PBS, and incubated at 37° C. for 15 min, after which 1.5 μM propidium iodide (PI), a marker of permeabilized cell membranes, was added.

cathepsin B = cathepsin B (Homo sapiens, UniProt P07858); experiment: Resistance to acid proteases: cathepsin B; type: in vitro ADME; conditions: 50 pmol, 30 min, 37° C., pH 5
Experimental: as §1

HeLa cells [3] = experiment: Colocalization with Alexa-488-transferrin (Tf488), live cell confocal microscopy; type: cell-based; conditions: 1 μM, 30 min
Experimental: To examine the colocalization of rhodamine labeled miniature proteins or peptides with Alexa-488-transferrin (Tf488), HeLa cells were plated (200 μl, 10^4 cells/well, 96 well glass bottom plates, Matrical) the day prior to experiments. The media was replaced with 150 μL Hepes-Krebs-Ringer's (HKR) buffer (140 mM NaCl, 2 mM KCl, 1 mM CaCl2, 1 mM MgCl2, 10 mM Hepes pH 7.4) containing 1 μM miniature protein or 25 nM Alexa-488-transferrin (Molecular Probes) and the cells incubated at 37° C. for 30 min. The cells were then rinsed twice with 200 μL, HKR buffer and nuclei were labeled by overlaying 200 μL HKR containing 300 nM Hoechst 33342 (Molecular Probes Cat. # H3570) for 5 minutes. Images of cells were acquired using a PerkinElmer LiveView spinning disk confocal microscope fitted with a 60×1.2 NA objective. Colocalization with Rab-GFP fusions was examined in an analogous way using HeLa cells transfected with the appropriate expression plasmid.
Colocalization between rhodamine and fluorescein labeled miniature proteins and peptides, or between rhodamine labeled miniature proteins and markers of endocytosis was completed using confocal microscopy. Live cell confocal microscopy was conducted using a PerkinElmer LiveView spinning disk confocal microscope fitted with heated microscope enclosure (maintained at 37° C.), a 60×1.2 NA objective, laser illumination, a Nipkow CSU-1× spinning disk, and a Hammamatsu CS9100 EMCCD camera operated using Velocity software. Alexafluor-488-transferrin was detected using a 488 nm laser and a 520 nm long pass filter; tetraethylrhodamine and Alexafluor-546-transferrin were detected using a 546 nm laser line and a 580 nm long pass filter, Hoescht 33342 was detected using a 405 nm laser line and a 450 nm long pass filter. Images were processed for presentation by using the ‘subtract background’ option and linear contrast adjustments in Image J. All adjustments were applied uniformly to the entire image. Colocalization analysis was performed using the JACOP plugin (Bolte and Cordelières, 2006), available on the ImageJ website. The fraction of rhodamine signal overlapping with EGFP signal (R E G) was calculated using Mander's coefficient and automatic thresholding. Pearson's correlation coefficient (R) was also obtained using the JACOP plugin.

HeLa cells [4] = experiment: Peptide degradation in HeLa cells, HPLC of whole cell lysates; type: in vitro ADME; conditions: 1 μM, 30 min, RIPA lysate
Experimental: Approximately 200,000 HeLa cells were treated with rhodamine labeled cationic miniature proteins and peptides as described for experiments using flow cytometry to measure peptide uptake. These cells were pelleted in 96 well microtitre plates (300 g, 3 min) and lysed in 40 μL RIPA buffer (150 mM NaCl, 50 mM Tris pH 7.4, 50 mM EDTA pH 7.4, 0.1% SDS, 1% Triton X-100) on ice for 30 min. The insoluble material was cleared from the cell lysate via centrifugation (10,000 g, 10 min) and 20 μL of the supernatant was diluted into 400 μL of 15% CH3CN in water. These samples were analyzed via reverse phase HPLC (Shimadzu Instruments) fitted with a fluorescence detector and a C18 column (Poroshell 120 SB-C18, 2.7 μm, 100 mm×3 mm ID, Agilent).

GR★-GFP = experiment: GIGT, transient transfection with GR★-GFP; type: cell-based; conditions: 500 nM, 30 min, HeLa cells
Experimental: Cells were plated (10,000 cells/well) onto 96-well glass bottom plates (Matrical Bioscience, #MGB096-1-2-LG-L) in full DMEM (HeLa) or full McCoy's 5A (U205) media and allowed to adhere overnight. […] Cells were allowed to transfect for 6 h at 37° C. under 5% CO2 before removing transfection media and replenishing growth media. Image analysis of GIGT using Cell Profiler. Cell image files were loaded into a customizable CellProfiler7 ‘pipeline’ as individual GFP (green) and Hoechst (blue) channels, and converted to grayscale. Nuclei were identified and segmented from the gray Hoechst channel based on Otsu three-class thresholding, with pixels in the middle intensity class assigned to background. Clumped objects were individually distinguished using ‘Laplacian of Gaussian’ modeling and separated by ‘shape’. […] The ratio of mean intensities of the nuclear region divided by the cytosolic region of the GFP image was measured for every cell examined, and 40-80 transfected cells from 15-25 images were acquired for each treatment.
Cells were allowed to incubate in the presence of ligand for 30 min at 37° C. under 5% CO2. […] Fluorescence illumination was initiated using an EXFO X-cite Series 120 Hg arc lamp. […] Fluorescence intensities of individual cells were quantified using the image analysis algorithm CellProfiler.

[5] = Trafficking of a biologically active peptide (NBD) into the cytosol; type: cell-based; conditions: 500 nM NBD fusions
Experimental: Cells were incubated in the presence of either 500 nM ZF 5.3-NBD or Antp-NBD or Arg8-NBD (FIG. 20). After incubation, internal peptide concentration was measured.

[6] = test system: HeLa cervical cancer cells; experiment: Internal peptide concentration after co-administration with ZF 5.3; type: cell-based
Experimental: HeLa cervical cancer cells were incubated in the presence of either 500 nM ZF 4.3-Rhodamine or 500 nM ZF 4.3-Rhodamine with 1 μM ZF 5.3 for 30 minutes. After incubation, external peptide was removed and internal peptide concentration was measured using a microscope with advanced correlation and detection hardware. In the absence of ZF 5.3, only a small amount of ZF 4.3 enters the cell interior, corresponding to ˜8% of the ZF 4.3 concentration added (FIG. 19). In the presence of ZF 5.3, the amount of ZF 4.3 that enters the cell interior quadrupled, raising to ˜35% of the concentration added (FIG. 19).

[7] = Circular dichroism thermal melt; type: physicochemical; conditions: unlabeled, 25 μM in PBS
Experimental: FIG. 8, comprising FIGS. 8A-8C, depicts the results of circular dichroism (CD) analysis of miniature proteins studied herein. (FIG. 8A) Wavelength dependent CD spectra of miniature proteins at 25 μM concentration in PBS at 37° C. (FIG. 8B) Temperature dependent ellipticity at 222 nm of miniature proteins at 25 μM.
CD spectra of unlabeled aPP-based miniature were recorded from samples containing 25 μM peptide in PBS as described (Luedtke et al., 2007, Nat Chem Biol. 3:779-784). CD spectra of ZF and ZF5.3 in the presence and absence of Zn2+ were recorded from solutions of peptide (12.5-25 μM) dissolved in 10 mM argon-purged Tris-HCL (pH 8.0) in the presence or absence of 0.5 mM dithiothreitol and 2 eq. ZnC12. Samples were incubated for 30 min at RT and analyzed on a Jasco J-810-150S spectropolarimeter. Final plots show background-normalized averages of six scans.

CC[C@H](C)[C@H](NC(=O)[C@H](CC(C)C)NC(=O)[C@H](CC(=O)O)NC(=O)[C@H](CCCNC(=N)N)NC(=O)[C@@H](NC(=O)[C@@H]1CCCN1C(=O)[C@H](C)NC(=O)[C@H](CC(=O)O)NC(=O)[C@H](CC(=O)O)NC(=O)CNC(=O)[C@@H]1CCCN1C(=O)[C@H](Cc1ccc(O)cc1)NC(=O)[C@@H](NC(=O)[C@@H]1CCCN1C(=O)[C@H](CCC(N)=O)NC(=O)[C@H](CO)NC(=O)[C@@H]1CCCN1C(=O)CNC(=O)[C@@H](N)CCCCNS(=O)(=O)c1ccc(-c2c3ccc(=[N+](CC)CC)cc-3oc3cc(N(CC)CC)ccc23)c(S(=O)(=O)[O-])c1)[C@@H](C)O)C(C)C)C(=O)N[C@@H](CCCNC(=N)N)C(=O)N[C@@H](Cc1ccccc1)C(=O)N[C@@H](Cc1ccc(O)cc1)C(=O)N[C@@H](CCCNC(=N)N)C(=O)N[C@@H](CC(=O)O)C(=O)N[C@@H](CC(C)C)C(=O)N[C@@H](CCCNC(=N)N)C(=O)N[C@@H](CCCNC(=N)N)C(=O)N[C@@H](Cc1ccc(O)cc1)C(=O)N[C@@H](CC(C)C)C(=O)N[C@@H](CC(N)=O)C(=O)N[C@H](C(=O)N[C@H](C(=O)N[C@H](C(=O)N[C@@H](CCCNC(=N)N)C(=O)N[C@@H](Cc1c[nH]cn1)C(=O)N[C@@H](CCCNC(=N)N)C(=O)N[C@@H](Cc1ccc(O)cc1)C(N)=O)[C@@H](C)O)C(C)C)C(C)C [5.3R] (H-K(X1)GPSQPTYPGDDAPVRDLIRFYRDLRRYLNVVTRHRY-NH2)
degradation by cathepsin D (HPLC) (cathepsin D): cleaved by cathepsin D | metabolised at 0.5 h (cathepsin D; isolated enzyme cathepsin other, read-out: disappearance after incubation with cathepsin D): ~50% | degradation by cathepsin L (HPLC) (cathepsin L): traces identical to the parent peptide; also recorded: to a smaller extent | effect of EIPA on uptake (HeLa cells [1]): dramatically reduced the uptake | effect of dynasore on uptake (HeLa cells [1]): completely blocked the uptake | effect of MβCD on uptake (HeLa cells [1]): completely blocked the uptake | material found in SLO cytoplasmic extracts (HPLC) (HeLa cells [2]): presence of intact 5.3R; also recorded: a single peak with the same retention time as the starting material | degradation by cathepsin B (HPLC) (cathepsin B): several additional small peaks | intracellular red fluorescent signal (HeLa cells [3]): red fluorescent puncta throughout the cytosol | degradation during incubation with HeLa cells (HPLC of whole cell lysates) (HeLa cells [4]): minimal to no cleavage; also recorded: virtually identical to control samples

K^DexGPSQPTYPGDDAPVRDLIRPYRDLQRPLRVVTRHRY (K(dexamethasone)GPSQPTYPGDDAPVRDLIRPYRDLQRPLRVVTRHRY-NH2) [5.2-P2Dex]
translocation ratio (TR), GR★-GFP (GR★-GFP): 1.35±0.11

K^RhodGRKKRRQRRRPPQY-NH2 (K(rhodamine)GRKKRRQRRRPPQY-NH2; reading uncertain; also: printed as K^RhodGRKKRRQRRRPPQY-NH2) [TatR]
degradation by cathepsin D (HPLC) (cathepsin D): little or no degradation | degradation by cathepsin L (HPLC) (cathepsin L): little or no degradation | effect of EIPA on uptake (HeLa cells [1]): dramatically reduced the uptake | effect of dynasore on uptake (HeLa cells [1]): completely blocked the uptake | effect of MβCD on uptake (HeLa cells [1]): completely blocked the uptake | material found in SLO cytoplasmic extracts (HPLC) (HeLa cells [2]): retention times distinct from the starting material; also recorded: little or no material with the same retention time as the starting material | degradation by cathepsin B (HPLC) (cathepsin B): little or no degradation | intracellular red fluorescent signal (HeLa cells [3]): red fluorescent puncta throughout the cytosol | degradation during incubation with HeLa cells (HPLC of whole cell lysates) (HeLa cells [4]): numerous additional peaks

WYSCNVCGKAFVLSRHLNRHLRVHRRAT [ZF5.3]
trafficking a biologically active peptide into the cytosol [5]: superior to both Antp and Arg8

K^DexGPSQPTYPGDDAPVRDLIRPYRDLRRPLNVVTRHRY (K(dexamethasone)GPSQPTYPGDDAPVRDLIRPYRDLRRPLNVVTRHRY-NH2) [5.3-P2Dex]
translocation ratio (TR), GR★-GFP (GR★-GFP): 1.64±0.27

RRRRRRRR [Arg8]
intracellular concentration on co-incubation with ZF 5.3 [6]: did not significantly increase

GPSQPTYPGDDAPVRDLRRFYRDLRRYLNVVTRHRYC^acetyl-NH2 (GPSQPTYPGDDAPVRDLRRFYRDLRRYLNVVTRHRYC(Ac)-NH2) [6.3]
Tm (temperature dependent ellipticity at 222 nm) [7]: 33 °C
